Laboratory results from ChEMBL document CHEMBL1133303, “Molecular topology: a useful tool for the search of new antibacterials” (2000).
Converted amounts (≈) assume the structure as drawn.

Key:
Type in all cases: functional
Staphylococcus aureus = assay: Minimum Inhibitory concentration against Staphylococcus aureus (CECT240)
Pseudomonas aeruginosa = assay: Minimum inhibitory concentration against Pseudomonas aeruginosa (CECT108)
Escherichia coli = assay: Minimum inhibitory concentration against Escherichia coli (CECT405)
Proteus mirabilis = assay: Minimum inhibitory concentration against Proteus mirabilis (CECT170)

Row | Molecule | MIC90 (Staphylococcus aureus) [µg/mL] | MIC90 (Pseudomonas aeruginosa) [µg/mL] | MIC90 (Escherichia coli) [µg/mL] | MIC90 (Proteus mirabilis) [µg/mL]
1 | CC(=O)Nc1cc(C)cc(/N=N/c2cc([N+](=O)[O-])cc([N+](=O)[O-])c2O)c1O | 130 (≈ 346 µM) | 130 (≈ 346 µM) | 130 (≈ 346 µM) | 130 (≈ 346 µM)
2 | O=C(N[C@H](CO)[C@H](O)c1ccc([N+](=O)[O-])cc1)C(Cl)Cl [CHLORAMPHENICOL] | 100 (≈ 309 µM) | 100 (≈ 309 µM) | 10 (≈ 30.9 µM) | 100 (≈ 309 µM)
3 | COc1cc2ccc(=O)oc2c(O[C@@H]2O[C@H](CO)[C@@H](O)[C@H](O)[C@H]2O)c1O [FRAXINE] | 1450 (≈ 3920 µM) | 1450 (≈ 3920 µM) | 1450 (≈ 3920 µM) | 1450 (≈ 3920 µM)
4 | COc1ccc([C@@H]2CC(=O)c3c(O)cc(O[C@@H]4O[C@H](CO[C@@H]5O[C@@H](C)[C@H](O)[C@@H](O)[C@H]5O)[C@@H](O)[C@H](O)[C@H]4O)cc3O2)cc1O [HESPERIDIN] | 8 (≈ 13.1 µM) | 25 (≈ 40.9 µM) | – | –
5 | O=c1c(O)c(-c2ccc(O)cc2O)oc2cc(O)cc(O)c12 [MORIN] | 120 (≈ 397 µM) | 120 (≈ 397 µM) | 1380 (≈ 4570 µM) | 120 (≈ 397 µM)
6 | COc1ccc([C@@H]2CC(=O)c3c(O)cc(O[C@@H]4O[C@H](CO)[C@@H](O)[C@H](O)[C@H]4O[C@@H]4O[C@@H](C)[C@H](O)[C@@H](O)[C@H]4O)cc3O2)cc1O [NEOHESPERIDIN] | 300 (≈ 491 µM) | 300 (≈ 491 µM) | 300 (≈ 491 µM) | 300 (≈ 491 µM)
7 | O=C(O)c1cccnc1Nc1cccc(C(F)(F)F)c1 [NIFLUMIC ACID] | 160 (≈ 567 µM) | – | 1800 (≈ 6380 µM) | 1800 (≈ 6380 µM)
8 | SILYMARIN | 80 | 200 | – | 700
